These results are taken from PubChem BioAssay AID270 (DTP/NCI, 2004).

This assay relates to BDF1 mice, s.c. Lewis lung carcinoma, T/C %. As to the kind of experiment: NCI In Vivo Anticancer Drug Screen. Data for tumor model Lewis Lung Carcinoma (subcutaneous) in B6D2F1 (BDF1) mice. The procedure, abridged:
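Transplanted tumors grown in mice; compound vs vehicle dosing; endpoint survival or tumor size; ratio T/C.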

[1] abbreviates: endpoint: median survival time, dose: 10.0 mg/kg/injection, schedule: Q01DX009 (ip), vehicle: saline, higher = longer survival.
Where [2] appears, read: endpoint: median survival time, dose: 20.0 mg/kg/injection, schedule: Q01DX009 (ip), vehicle: saline, higher = longer survival.

SMILES strings stand for the structures. “And” between values parts separate entries of the source, which are not always exact repeats. Identical values can stand only once. Results filed as inconclusive are left out. *1 amine or outer side, *2 acyl side, *3 side chain or, on linkers, in order; H or OH if unused. Where a SMILES comes first, the peptide text is derived from it. Bridges are numbered along the chain shown (N, C = ends). Roman numbers before positions name the chains, in order. [ ]: non-standard residue; d: D form. Actinocin(9to1) = Cc1c2oc3c(C)ccc(C(=O)[*:1])c3nc-2c(C(=O)[*:2])c(N)c1=O; aThr = C[C@H](O)[C@H](N)C(=O)O; NMeV = CN[C@H](C(=O)O)C(C)C; Sar = CNCC(=O)O

In the case of `Cc1c2oc3c(C)ccc(C(=O)N[C@@H]4C(=O)N[C@H](C(C)C)C(=O)N5CCC[C@H]5C(=O)N(C)CC(=O)N(C)[C@@H](C(C)C)C(=O)O[C@H]4C)c3nc-2c(C(=O)N[C@@H]2C(=O)N[C@H](C(C)C)C(=O)N3CCC[C@H]3C(=O)N(C)CC(=O)N(C)[C@@H](C(C)C)C(=O)O[C@H]2C)c(N)c1=O` (I: [aThr][dV]P[Sar][NMeV] / II: [aThr][dV]P[Sar][NMeV]; ester I:1-I:C, II:1-II:C; linker I:N-II:N via Actinocin(9to1)), the T/C (endpoint: mean tumor weight, dose: 0.03 mg/kg/injection, schedule: Q01DX011 (ip), vehicle: saline, higher = larger tumour) was 89 % of control; the T/C (endpoint: mean tumor weight, dose: 0.05 mg/kg/injection, schedule: Q01DX011 (ip), vehicle: saline, higher = larger tumour) is 55 % of control; the T/C (endpoint: mean tumor weight, dose: 12.0 micrograms/kg/injection, schedule: Q01DX011 (ip), vehicle: other, higher = larger tumour) is 122 % of control; the T/C (endpoint: mean tumor weight, dose: 25.0 micrograms/kg/injection, schedule: Q01DX011 (ip), vehicle: other, higher = larger tumour) is 95 % of control and 98 % of control; the T/C (endpoint: mean tumor weight, dose: 50.0 micrograms/kg/injection, schedule: Q01DX011 (ip), vehicle: other, higher = larger tumour) was 42 % of control and 49 % of control; the T/C (endpoint: median survival time, dose: 12.5 micrograms/kg/injection, schedule: Q01DX009 (ip), vehicle: saline, higher = longer survival) was 98 % of control and 122 % of control. Also, the T/C (endpoint: median survival time, dose: 12.5 micrograms/kg/injection, schedule: Q01DX009 (ip), vehicle: water, higher = longer survival) was 112 % of control; the T/C (endpoint: median survival time, dose: 13.0 micrograms/kg/injection, schedule: Q01DX009 (ip), vehicle: saline, higher = longer survival) is 116 % of control; the T/C (endpoint: median survival time, dose: 25.0 micrograms/kg/injection, schedule: Q01DX009 (ip), vehicle: water, higher = longer survival) is 120 % of control; the T/C (endpoint: median survival time, dose: 50.0 micrograms/kg/injection, schedule: Q01DX009 (ip), vehicle: water, higher = longer survival) was 102 % of control; the T/C (endpoint: median survival time, dose: 75.0 micrograms/kg/injection, schedule: Q04DX003 (ip), vehicle: water, higher = longer survival) was 153 % of control; the T/C (endpoint: median survival time, dose: 150.0 micrograms/kg/injection, schedule: Q04DX003 (ip), vehicle: water, higher = longer survival) is 105 % of control. Also, the T/C runs as follows: (endpoint: median tumor weight (est.), dose: 12.0 micrograms/kg/injection, schedule: Q01DX009 (ip), vehicle: saline, higher = larger tumour) 88 % of control; (endpoint: median tumor weight (est.), dose: 25.0 micrograms/kg/injection, schedule: Q01DX009 (ip), vehicle: saline, higher = larger tumour) 98 % of control; (endpoint: median tumor weight (est.), dose: 50.0 micrograms/kg/injection, schedule: Q01DX009 (ip), vehicle: saline, higher = larger tumour) 70 % of control; (endpoint: median tumor weight (est.), dose: 100.0 micrograms/kg/injection, schedule: Q01DX009 (ip), vehicle: saline, higher = larger tumour) 51 % of control.
For the compound `CCOc1ccc(Nc2ncnc3nc[nH]c23)cc1CN(CCCl)CCCl`, the T/C was 54 % of control (endpoint: mean tumor weight, dose: 1.2 mg/kg/injection, schedule: Q01DX011 (ip), vehicle: other, higher = larger tumour) and 46 % of control (endpoint: mean tumor weight, dose: 2.3 mg/kg/injection, schedule: Q01DX011 (ip), vehicle: other, higher = larger tumour).
Consider `CC(C)=CCC(OC(=O)C=C(C)C)C1=CC(=O)c2c(O)ccc(O)c2C1=O` (configuration not stated), for which the T/C (endpoint: median survival time, dose: 6.25 mg/kg/injection, schedule: Q01DX009 (ip), vehicle: Klucel (hydroxypropylcellulose) (HPC), higher = longer survival) is 104 % of control; the T/C (endpoint: median survival time, dose: 12.5 mg/kg/injection, schedule: Q01DX009 (ip), vehicle: Klucel (hydroxypropylcellulose) (HPC), higher = longer survival) was 88 % of control; the T/C (endpoint: median survival time, dose: 25.0 mg/kg/injection, schedule: Q01DX009 (ip), vehicle: Klucel (hydroxypropylcellulose) (HPC), higher = longer survival) is 118 % of control.
With `O=C1C2C3C=CC(C3)C2C(=O)N1c1nccs1` (configuration not stated), the T/C by setting is: (endpoint: mean tumor weight, dose: 50.0 mg/kg/injection, schedule: Q01DX011 (ip), vehicle: carboxymethylcellulose (CMC), higher = larger tumour) 113 % of control; (endpoint: mean tumor weight, dose: 100.0 mg/kg/injection, schedule: Q01DX011 (ip), vehicle: carboxymethylcellulose (CMC), higher = larger tumour) 100 % of control; (endpoint: mean tumor weight, dose: 200.0 mg/kg/injection, schedule: Q01DX011 (ip), vehicle: carboxymethylcellulose (CMC), higher = larger tumour) 45 % of control.
With `C1CC[N-]CC1.C1CC[N-]CC1.C1CC[N-]CC1.C1CC[N-]CC1.[Cl][Co][Cl]`, the T/C is 63 % of control (endpoint: mean tumor weight, dose: 15.0 mg/kg/injection, schedule: Q01DX011 (ip), vehicle: other, higher = larger tumour); 68 % of control (endpoint: mean tumor weight, dose: 30.0 mg/kg/injection, schedule: Q01DX011 (ip), vehicle: other, higher = larger tumour); 56 % of control (endpoint: mean tumor weight, dose: 60.0 mg/kg/injection, schedule: Q01DX011 (ip), vehicle: other, higher = larger tumour); 94 % of control (endpoint: median survival time, dose: 2.5 mg/kg/injection, schedule: Q01DX009 (ip), vehicle: saline, higher = longer survival); 105 % of control under setting [1]; 95 % of control under setting [2]. The T/C (endpoint: median survival time, dose: 40.0 mg/kg/injection, schedule: Q01DX009 (ip), vehicle: saline, higher = longer survival) was 93 % of control.
Turning to `CS(=O)(=O)OCCCNCCCOS(C)(=O)=O`, the T/C (endpoint: mean tumor weight, dose: 10.0 mg/kg/injection, schedule: Q01DX011 (ip), vehicle: saline, higher = larger tumour) was 63 % of control; the T/C (endpoint: mean tumor weight, dose: 20.0 mg/kg/injection, schedule: Q01DX011 (ip), vehicle: saline, higher = larger tumour) was 70 % of control; the T/C (endpoint: mean tumor weight, dose: 40.0 mg/kg/injection, schedule: Q01DX011 (ip), vehicle: saline, higher = larger tumour) was 42 % of control; the T/C under setting [1] was 105 % of control; the T/C under setting [2] is 101 % of control.
With `Oc1cc(N2CC2)c(O)cc1N1CC1`, the T/C (endpoint: median survival time, dose: 0.22 mg/kg/injection, schedule: Q01DX009 (ip), vehicle: saline, higher = longer survival) was 106 % of control; the T/C (endpoint: median survival time, dose: 0.44 mg/kg/injection, schedule: Q01DX009 (ip), vehicle: saline, higher = longer survival) was 105 % of control; the T/C (endpoint: median survival time, dose: 0.68 mg/kg/injection, schedule: Q01DX009 (ip), vehicle: saline, higher = longer survival) was 110 % of control; the T/C (endpoint: median survival time, dose: 1.0 mg/kg/injection, schedule: Q01DX009 (ip), vehicle: saline, higher = longer survival) was 90 % of control.
On to `CC(C)CCCCCCCCCCCCC(=O)NCC(=O)NC1C(O)C(O)C(Nc2ncnc3nc[nH]c23)OC1C(O)CO` (configuration not stated), for which the T/C runs as follows: (endpoint: mean tumor weight, dose: 0.25 mg/kg/injection, schedule: Q01DX011 (ip), vehicle: saline, higher = larger tumour) 69 % of control; (endpoint: mean tumor weight, dose: 0.5 mg/kg/injection, schedule: Q01DX011 (ip), vehicle: saline, higher = larger tumour) 54 % of control; (endpoint: mean tumor weight, dose: 1.0 mg/kg/injection, schedule: Q01DX011 (ip), vehicle: saline, higher = larger tumour) 100 % of control.
As for `NC(C/[N+]([O-])=N/O)C(=O)O` (configuration not stated), the T/C (endpoint: median survival time, dose: 8.78 mg/kg/injection, schedule: Q01DX010 (ip), vehicle: alkali diluted with saline, higher = longer survival) was 103 % of control and 105 % of control; the T/C (endpoint: median survival time, dose: 13.2 mg/kg/injection, schedule: Q01DX010 (ip), vehicle: alkali diluted with saline, higher = longer survival) is 120 % of control and 121 % of control; the T/C (endpoint: median survival time, dose: 19.8 mg/kg/injection, schedule: Q01DX010 (ip), vehicle: alkali diluted with saline, higher = longer survival) is 102 % of control; the T/C (endpoint: median survival time, dose: 29.6 mg/kg/injection, schedule: Q01DX010 (ip), vehicle: alkali diluted with saline, higher = longer survival) was 105 % of control; the T/C (endpoint: median survival time, dose: 44.4 mg/kg/injection, schedule: Q01DX010 (ip), vehicle: alkali diluted with saline, higher = longer survival) was 114 % of control and 116 % of control; the T/C (endpoint: median survival time, dose: 66.7 mg/kg/injection, schedule: Q01DX010 (ip), vehicle: alkali diluted with saline, higher = longer survival) is 117 % of control. The T/C is, setting by setting: (endpoint: median survival time, dose: 100.0 mg/kg/injection, schedule: Q01DX010 (ip), vehicle: alkali diluted with saline, higher = longer survival) 98 % of control; (endpoint: median survival time, dose: 1000.0 mg/kg/injection, schedule: Q01DX001 (ip), vehicle: saline, higher = longer survival) 96 % of control.
Turning to `CCOC(C)C(/C=N/NC(N)=S)=NNC(N)=S` (configuration not stated), the T/C runs as follows: (endpoint: mean tumor weight, dose: 30.0 mg/kg/injection, schedule: Q01DX011 (ip), vehicle: saline, higher = larger tumour) 77 % of control; (endpoint: mean tumor weight, dose: 60.0 mg/kg/injection, schedule: Q01DX011 (ip), vehicle: saline, higher = larger tumour) 81 % of control; (endpoint: mean tumor weight, dose: 120.0 mg/kg/injection, schedule: Q01DX011 (ip), vehicle: saline, higher = larger tumour) 66 % of control.
As to `O=c1cc(CO)[nH]cc1O`, the T/C is, setting by setting: (endpoint: mean tumor weight, dose: 25.0 mg/kg/injection, schedule: Q01DX011 (ip), vehicle: methylcellulose (MC), higher = larger tumour) 81 % of control; (endpoint: mean tumor weight, dose: 50.0 mg/kg/injection, schedule: Q01DX011 (ip), vehicle: methylcellulose (MC), higher = larger tumour) 77 % of control; (endpoint: mean tumor weight, dose: 100.0 mg/kg/injection, schedule: Q01DX011 (ip), vehicle: methylcellulose (MC), higher = larger tumour) 63 % of control; (endpoint: mean tumor weight, dose: 500.0 mg/kg/injection, schedule: Q01DX011 (ip), vehicle: methylcellulose (MC), higher = larger tumour) 62 % of control; (endpoint: mean tumor weight, dose: 600.0 mg/kg/injection, schedule: Q01DX011 (ip), vehicle: methylcellulose (MC), higher = larger tumour) 82 % of control; (endpoint: mean tumor weight, dose: 700.0 mg/kg/injection, schedule: Q01DX011 (ip), vehicle: methylcellulose (MC), higher = larger tumour) 115 % of control.
As for `C=C1C(=O)OC2CC(C)C3(O)CCC(C)(CC(OC(=O)C(C)C)C12)O3` (configuration not stated), the T/C by setting is: (endpoint: median survival time, dose: 50.0 mg/kg/injection, schedule: Q01DX009 (ip), vehicle: Klucel (hydroxypropylcellulose) (HPC), higher = longer survival) 92 % of control; (endpoint: median survival time, dose: 100.0 mg/kg/injection, schedule: Q01DX009 (ip), vehicle: Klucel (hydroxypropylcellulose) (HPC), higher = longer survival) 106 % of control.
For the compound `CN[C@H]1CCc2cc(OC)c(OC)c(OC)c2-c2ccc(OC)c(=O)cc21`, the T/C (endpoint: mean tumor weight, dose: 0.63 mg/kg/injection, schedule: Q01DX011 (ip), vehicle: saline, higher = larger tumour) was 59 % of control; the T/C (endpoint: mean tumor weight, dose: 1.25 mg/kg/injection, schedule: Q01DX011 (ip), vehicle: saline, higher = larger tumour) was 85 % of control; the T/C (endpoint: mean tumor weight, dose: 2.5 mg/kg/injection, schedule: Q01DX011 (ip), vehicle: saline, higher = larger tumour) is 61 % of control; the T/C (endpoint: mean tumor weight, dose: 5.0 mg/kg/injection, schedule: Q01DX011 (ip), vehicle: saline, higher = larger tumour) was 58 % of control and 72 % of control; the T/C (endpoint: mean tumor weight, dose: 7.0 mg/kg/injection, schedule: Q01DX011 (ip), vehicle: saline, higher = larger tumour) is 33 % of control.
